Structures can show the parent of a compound that is named as a salt.
Test system: Japanese medaka (Oryzias latipes)
Assay: Fish short-term reproduction assay (FSTRA, OECD TG229), 21-day flow-through exposure
Conditions: for Fertility rate (%) / Mortality (%) Female / Mortality (%) Male / Number of fertilized eggs / Number of total eggs / SSC Female / VTG (ng/mg of liver) Male / SSC Male / VTG (ng/mg of liver) Female: 21 days; for GSI Female / GSI Male / HSI Female / HSI Male / Length Female / Length Male / Weight Female / Weight Male: at completion of exposure
Description: The experimental studies on the FSTRA for the 16 chemicals were conducted in two laboratories in Japan, the National Institute for Environmental Studies (NIES, Lab‐1) and the Institute of Environmental Ecology, IDEA Consultants Inc. (Lab‐2), in accordance with OECD TG229 (OECD, [2012a]) (Table 1).
The NIES‐R strain of Japanese medaka (O. latipes), one of the orange‐red varieties, was used in all the 16 chemical studies. For the studies, healthy and mature male and female medakas at 16 ± 2 weeks old were selected from a single‐stock population, which were bred within the test facilities. The test fish were maintained in conditions similar to the assay for at least 7 days, and spawning status was checked during the acclimation period. On the day the chemical exposure commenced, to ensure balanced distribution of test fish between the treatment groups for the reproductive status of the fish, the replicate vessels (fish tanks), with each containing three male and female medaka, were distributed to each treatment and control group, for example, by a randomized block design based on the number of fertilized eggs laid in the last 5–7 days during the acclimation, in each assay.
The water solubility of the test chemical was also taken into consideration when deciding the highest test concentration. To set the lower concentrations, a spacing factor ranging between two and five was used. All assays included a dilution water control (DWC).
Test solutions at the selected concentrations were prepared by diluting a stock solution, which was prepared by an adequate method depending on the physicochemical properties of the test chemicals, for example, by simply mixing the test chemical in dilution water by stirring and/or sonicating for an appropriate time or by using a solid–liquid saturator. In the two laboratories, flow‐through exposure systems, in which a series of test solutions at the target concentrations can be continuously prepared and delivered to test vessels at controlled flow rates (Haselman et al., [2016]; Watanabe et al., [2017]), were used for the exposure experiments.
In the FSTRA, three mature adult males and females in a test vessel were exposed together to the test chemicals in flow‐through condition for 3 weeks. In all the assays, each treatment group, including the DWC group, contained four replicate tanks. During the exposure period, the fish were fed a sufficient amount of live brine shrimp nauplii (newly hatched Artemia sp.) for daily spawning ad libitum. Fecal material in the tanks was appropriately removed by siphoning after feeding. Water temperature of test solutions was recorded for at least one vessel in each treatment and control group every day and for all vessels at least once a week. Furthermore, dissolved oxygen and pH of test solutions were measured for all test vessels at least once a week. Mortality and abnormal behavior and appearance in the fish exposed to test chemicals were daily observed, and any fish that died were removed from the tank as soon as possible. To assess the reproductive status, all eggs females spawned were collected every day. At the completion of the chemical exposure, surviving fish in each tank were sampled.
The eggs females released on the bottom of the tank were collected by siphoning, and the egg clutches still on female abdomen were carefully picked from the body of the females captured using a small net. All the eggs collected were microscopically observed and separately counted for fertilized and unfertilized.

## O=C(c1ccc(OCCN2CCCCC2)cc1)c1c(-c2ccc(O)cc2)sc2cc(O)ccc12 [RAL, Raloxifene hydrochloride]
Hepatic VTG, 21-day exposure, measured conc.
  LOEC for decrease of VTG in females: 721 µg/L
Measured conc. 63.9 μg/L
  Fertility rate (%): 87%
  Mortality (%) Female: 0%
  Mortality (%) Male: 0%
  Number of fertilized eggs: 16
  Number of total eggs: 18 ± 4.2 /female/day
  SSC Female: 0 ± 0
  VTG (ng/mg of liver) Male: 19.6 ± 5.7 ng/mg of liver
  GSI Female: 9.6%
  GSI Male: 1.03%
  HSI Female: 3.2%
  HSI Male: 1.5%
  Length Female: 36.9 mm
  Length Male: 37.5 mm
  Weight Female: 555 mg
  Weight Male: 511 mg
Measured conc. 203 μg/L
  Fertility rate (%): 86%
  Mortality (%) Female: 0%
  Mortality (%) Male: 0%
  Number of fertilized eggs: 14
  Number of total eggs: 16 ± 2.6 /female/day
  SSC Female: 0 ± 0
  SSC Male: 118 ± 15
  VTG (ng/mg of liver) Female: 652 ± 82.4 ng/mg of liver
  VTG (ng/mg of liver) Male: 30.2 ± 11.4 ng/mg of liver
  GSI Female: 10.2%
  GSI Male: 0.97%
  HSI Female: 2.9%
  HSI Male: 1.6%
  Length Female: 37.8 mm
  Length Male: 38.4 mm
  Weight Female: 600 mg
  Weight Male: 550 mg
Measured conc. 721 μg/L
  Fertility rate (%): 82%
  Mortality (%) Female: 0%
  Mortality (%) Male: 0%
  Number of fertilized eggs: 14
  Number of total eggs: 17 ± 2.6 /female/day
  SSC Female: 0 ± 0
  VTG (ng/mg of liver) Female: 368 ± 68.4 ng/mg of liver
  VTG (ng/mg of liver) Male: 24.1 ± 13.7 ng/mg of liver
  GSI Female: 10.5%
  GSI Male: 0.96%
  HSI Female: 3.4%
  HSI Male: 1.5%
  Length Female: 38.8 mm
  Length Male: 39.0 mm
  Weight Female: 638 mg
  Weight Male: 612 mg
Measured conc. 2080 μg/L
  Fertility rate (%): 72%
  Mortality (%) Female: 0%
  Mortality (%) Male: 0%
  Number of fertilized eggs: 14
  Number of total eggs: 19 ± 2.5 /female/day
  SSC Female: 0 ± 0
  VTG (ng/mg of liver) Female: 305 ± 99.8 ng/mg of liver
  VTG (ng/mg of liver) Male: 17.2 ± 3.5 ng/mg of liver
  GSI Female: 11.5%
  GSI Male: 1.12%
  HSI Female: 4.7%
  HSI Male: 1.7%
  Length Female: 38.8 mm
  Length Male: 37.1 mm
  Weight Female: 675 mg
  Weight Male: 506 mg

## C[C@]12CCC(=O)C[C@@H]1CC[C@@H]1[C@@H]2CC[C@]2(C)[C@@H](O)CC[C@@H]12 [DHT, 5α‐Dihydrotestosterone]
21-day exposure
  effect on male SSC, in words: statistical significance
21-day exposure, measured conc.
  LOEC on female SSC (papillary process formation on anal fin): 1.03 µg/L
Measured conc. 0.063 μg/L
  Fertility rate (%): 94%
  Mortality (%) Female: 0%
  Mortality (%) Male: 0%
  Number of fertilized eggs: 17
  Number of total eggs: 18 ± 5.6 /female/day
  SSC Female: 0 ± 0
  SSC Male: 72 ± 12
  VTG (ng/mg of liver) Female: 617 ± 374 ng/mg of liver
  VTG (ng/mg of liver) Male: 1.6 ± 0.4 ng/mg of liver
  GSI Female: 10.5%
  GSI Male: 1.15%
  HSI Female: 3.6%
  HSI Male: 1.5%
  Length Female: 32.9 mm
  Length Male: 33.4 mm
  Weight Female: 354 mg
  Weight Male: 377 mg
Measured conc. 2.97 μg/L
  Fertility rate (%): 84%
  Mortality (%) Female: 0%
  Mortality (%) Male: 0%
  Number of fertilized eggs: 12
  Number of total eggs: 14 ± 3.7 /female/day
  SSC Female: 22 ± 14
  SSC Male: 78 ± 16
  VTG (ng/mg of liver) Female: 587 ± 306 ng/mg of liver
  VTG (ng/mg of liver) Male: 1.4 ± 0.7 ng/mg of liver
  GSI Female: 21.1%
  GSI Male: 1.21%
  HSI Female: 3.8%
  HSI Male: 1.7%
  Length Female: 32.8 mm
  Length Male: 33.6 mm
  Weight Female: 425 mg
  Weight Male: 411 mg
Within the test concentrations, 21-day exposure
  effect on fecundity (number of total eggs), in words: significantly reduced

From paper PMC8359193, “Summary of reference chemicals evaluated by the fish short‐term reproduction assay, OECD TG229, using Japanese Medaka, Oryzias latipes” (Journal of Applied Toxicology, 2021)
